Data reported in patent publication US8492374B2, “Azaazulene compounds” (Industrial Technology Research Institute, priority 2009, dated 2013).

Experiments:
[1] = target: T1, FLT-3 kinase (Homo sapiens, UniProt P36888); experiment: FLT-3 kinase DELFIA assay (HTScan FLT-3 Kinase Assay Kit); assay type: biochemical; settings: 20 uM ATP; for inhibition at 0.1 µM: 0.1 uM compound; for inhibition at 1 µM: 1 uM compound
T1 construct: human FLT-3 (Arg571-Ser993); GST (N); purchased Cell Signaling Technology HTScan FLT-3 Kinase Assay Kit; host or cells: baculovirus expression system
T1 sequence (P36888 571-993): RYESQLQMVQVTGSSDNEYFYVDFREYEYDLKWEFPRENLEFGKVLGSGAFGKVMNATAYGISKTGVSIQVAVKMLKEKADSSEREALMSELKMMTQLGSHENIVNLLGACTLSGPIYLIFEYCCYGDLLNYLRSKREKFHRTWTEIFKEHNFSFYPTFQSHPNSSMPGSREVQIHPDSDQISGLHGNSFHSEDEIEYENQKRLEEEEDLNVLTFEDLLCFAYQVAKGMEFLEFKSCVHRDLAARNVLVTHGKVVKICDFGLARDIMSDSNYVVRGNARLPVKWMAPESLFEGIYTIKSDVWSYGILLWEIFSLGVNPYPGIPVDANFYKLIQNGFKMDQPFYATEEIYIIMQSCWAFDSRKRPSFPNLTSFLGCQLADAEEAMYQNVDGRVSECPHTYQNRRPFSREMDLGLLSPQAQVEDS
Description: (§1) Azaazulene Compounds of this invention were treated for their efficacy in inhibiting activities of FLT-3, c-KIT and KDR kinases by biochemical DELFIA (Dissociation Enhanced Lanthanide FIA) assays according to the procedure described below. The assays were conducted by, Division of Cell Engineering, Biomedical Engineering Research Laboratories, Industrial Technology Research Institute, Bldg. 53, 195, sec. 4, Chung Hsing Rd. Chutung, Hsinchu, Taiwan 310, R.O.C.
The FLT-3 assay was conducted following the protocol described in Protocol for HTScang FLT-3 Kinase Assay Kit (Cell Signaling Technology®).

[2] = test system: MV4-11 (FLT3-ITD) cell line; experiment: In vitro cell activity assay (MTT cell viability, 72 hours); assay type: cell-based; settings: Homo sapiens, 72 hours at 37° C., 10,000 cells per well, read-out: IC50 against MV4-11
Description: Human MV4-11 (FLT3-ITD) cell line was obtained from American Tissue Culture Collection (ATCC number: CRL-9591). The cell line was cultured with RPMI 1640 containing 10% fetal bovine serum, 1 mmol/L sodium pyruvate and 10 mmol/L HEPES (pH 7.4). The cell was grown and maintained in a humidified atmosphere at 37° C. and 5% carbon dioxide.
MV4-11 cell was plated in 96-well microtiter plates (10,000 cells per well) and serial dilutions of indicated compounds were added. At the end of the incubation period (72 hours at 37° C.), cell viability was determined by a tetrazolium dye, MTT (3-(4,5-dimethylthiazol-2-yl)-2,5-diphenyl tetrazolium bromide) (Promega, Madison, Wis.). The formazan crystals were dissolved by DMSO, and the absorbance at a wavelength of 600 nm was recorded using an ELISA plate reader. IC50 values were calculated using nonlinear regression and defined as the concentration needed for a 50% reduction in absorbance of treated versus untreated control cells.

[3] = target: T2, c-KIT kinase (Homo sapiens, UniProt P10721); experiment: c-KIT kinase DELFIA assay (HTScan c-KIT Kinase Assay Kit); assay type: biochemical; settings: 20 uM ATP; for inhibition at 1 µM: 1 uM compound; for inhibition at 0.1 µM: 0.1 uM compound
T2 construct: human c-KIT (Thr544-Val976); GST (N); purchased Cell Signaling Technology HTScan c-KIT Kinase Assay Kit; host or cells: baculovirus expression system
T2 sequence (P10721 544-976): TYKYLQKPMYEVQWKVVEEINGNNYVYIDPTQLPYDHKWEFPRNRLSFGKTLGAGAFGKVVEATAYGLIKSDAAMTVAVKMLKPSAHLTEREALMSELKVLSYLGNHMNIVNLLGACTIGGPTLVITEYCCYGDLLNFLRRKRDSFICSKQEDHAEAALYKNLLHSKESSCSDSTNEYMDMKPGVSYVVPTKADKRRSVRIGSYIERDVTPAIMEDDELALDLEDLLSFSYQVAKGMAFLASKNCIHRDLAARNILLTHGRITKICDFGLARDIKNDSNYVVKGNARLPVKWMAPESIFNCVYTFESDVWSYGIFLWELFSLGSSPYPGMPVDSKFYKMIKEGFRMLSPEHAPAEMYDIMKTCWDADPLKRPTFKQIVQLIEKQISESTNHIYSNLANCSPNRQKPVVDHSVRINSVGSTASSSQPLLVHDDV
Description: as §1
The c-KIT assay was conducted following the protocol described in Protocol for HTScan® c-KIT Kinase Assay Kit (Cell Signaling Technology®).

| SMILES | inhibition at 0.1 µM [1] [%] | inhibition at 1 µM [1] [%] | IC50 [2] [nM] | inhibition at 1 µM [3] [%] | inhibition at 0.1 µM [3] [%] |
| --- | --- | --- | --- | --- | --- |
| O=c1[nH]c2cccccc-2c1-c1nc2cc(N3CCCN(CCCF)CC3)ccc2n1CCCF [Compound B83] | 11 | 21.2 | 227 | 19.7 |  |
| Nc1ncnc2[nH]c(-c3c4cccccc-4[nH]c3=O)nc12 [Compound B11] | 12.5 | 27.3 | 1000 to 5000 | 43.7 | 15.1 |
| O=c1[nH]c2cccccc-2c1-c1nc2ccccc2[nH]1 [Compound A1, 3-(benzimidazol-2-yl)-1-azaazulen-2-one, reference compound] | 11.5 | 59.4 | ~1000 | 64.5 | 34.1 |
| O=c1[nH]c2cccccc-2c1-c1nc2cc(N3CCCN(Cc4cccnc4)CC3)ccc2[nH]1 [Compound B87] | 39.8 | 91.6 | 88.6 | 96.2 | 49.6 |
| CN(C)CCCN(C)c1ccc2[nH]c(-c3c4cccccc-4[nH]c3=O)nc2c1 [Compound B21] | 20.1 | 63 | 428 | 55.4 | 10.8 |
| COc1ccc2nc(-c3c4cccccc-4[nH]c3=O)cn2c1 [Compound B14] |  | 9.6 | 1000 to 5000 | 39.4 | 20.1 |
| C[N+]1([O-])CC[N+]([O-])(c2ccc3[nH]c(-c4c5cccccc-5[nH]c4=O)nc3c2)CC1 (stereo not drawn) [Compound B70] | 11.1 | 27.5 | ~1000 | 86.6 | 40.5 |
| O=c1[nH]c2cccccc-2c1-c1nc2cc(N3CCCN(CCF)CC3)ccc2[nH]1 [Compound B80] | 23.1 | 71.4 | 796 | 82.9 | 56.7 |
| O=C(Nc1ccc(Cl)c(C(F)(F)F)c1)Nc1ccc2[nH]c(-c3c4cccccc-4[nH]c3=O)nc2c1 [Compound B118] | 57.9 | 76.3 | 64.1 | 36.8 | 66.6 |
| Cc1cc(N2CCCN(c3ccc4[nH]c(-c5c6cccccc-6[nH]c5=O)nc4c3)CC2)nc(N(C)C)n1 [Compound B97] | 8.8 | 44.6 | 100 to 500 | 87.2 | 40.1 |
| O=c1[nH]c2cccccc-2c1-c1nc2cccnc2[nH]1 [Compound B15] | 8.6 | 18.1 | 1000 to 5000 | 43.1 | 8.5 |
| O=c1[nH]c2cccccc-2c1-c1nc2cc(N3CCCNCC3)ccc2n1CCCF [Compound B81] | 9.9 | 21 | 208 | 17.2 | 28.9 |
| O=c1[nH]c2cccccc-2c1-c1nc2cc(N3CCCN(c4ccccn4)CC3)ccc2[nH]1 [Compound B94] | 17 | 52.3 | 852 | 79.1 | 12.3 |
| COc1cccc(NC(=O)Nc2ccc3[nH]c(-c4c5cccccc-5[nH]c4=O)nc3c2)c1 [Compound B138] | 35.6 | 58.1 | 718 |  |  |
| O=c1[nH]c2cccccc-2c1-c1nc2cc(N3CCCN(c4ncccn4)CC3)ccc2[nH]1 [Compound B98] | 17.8 | 69.5 | 418 |  |  |
| O=C(c1ccc2[nH]c(-c3c4cccccc-4[nH]c3=O)nc2c1)N1CCCN(c2ccncc2)CC1 [Compound B92] | 17.9 | 51.4 | 910 |  |  |
| O=c1[nH]c2cccccc-2c1-c1nc2cc(N3CCCN(c4cccc(Cl)n4)CC3)ccc2[nH]1 [Compound B96] | 10.9 | 35.7 | 1000 to 5000 |  |  |

| SMILES | inhibition at 0.1 µM [1] [%] | inhibition at 1 µM [1] [%] | IC50 [2] [nM] | inhibition at 1 µM [3] [%] | inhibition at 0.1 µM [3] [%] |
| --- | --- | --- | --- | --- | --- |
| CCC1CCN(c2ccc3[nH]c(-c4c5cccccc-5[nH]c4=O)nc3c2)CC1 [Compound B106] | 24.2 | 76.2 | 315 |  |  |
| O=c1[nH]c2cccccc-2c1-c1nc2cc(N3CCCNCC3)ccc2n1CCF [Compound B79] | 22.3 | 36.6 | 346 |  |  |
| Cc1cc(N2CCN(c3ccc4[nH]c(-c5c6cccccc-6[nH]c5=O)nc4c3)CC2)nc(N(C)C)n1 [Compound B67] | 43.3 | 95.3 | 77.8 |  |  |
| O=c1[nH]c2cccccc-2c1-c1nc2cc(N3CCC(N4CCCCC4)CC3)ccc2[nH]1 [Compound B102] | 22.8 | 67.8 | 115 |  |  |
| N#Cc1ccc2[nH]c(-c3c4cccccc-4[nH]c3=O)nc2c1 [Compound B19] | 14.7 | 28.6 | 1000 to 5000 |  |  |
| O=c1[nH]c2cccccc-2c1-c1cn2cccnc2n1 [Compound B12] | 4.5 | 1.6 | > 5000 |  |  |
| O=c1[nH]c2cccccc-2c1-c1nc2cc(N3CCN(c4cnccn4)CC3)ccc2[nH]1 [Compound B69] | 29.3 | 77.3 | 100 to 500 |  |  |
| O=C(Nc1ccc2[nH]c(-c3c4cccccc-4[nH]c3=O)nc2c1)Nc1ccccc1C(F)(F)F [Compound B131] | 7.9 | 7.3 | 1000 to 5000 |  |  |
| O=CN1CCCN(c2ccc3[nH]c(-c4c5cccccc-5[nH]c4=O)nc3c2)CC1 [Compound B88] | 20.6 | 62.4 | 144 | 89.2 | 47.2 |
| O=c1[nH]c2cccccc-2c1-c1nc2cc(N3CCCN(c4cnccn4)CC3)ccc2[nH]1 [Compound B99] | 17 | 51.8 | 600 |  |  |
| O=c1[nH]c2cccccc-2c1-c1nc2cc(N3CCCN(c4ncccc4[N+](=O)[O-])CC3)ccc2[nH]1 [Compound B95] | 14.4 | 37.7 | 771 | 82.6 | 48.3 |
| O=c1[nH]c2cccccc-2c1-c1nc2cc(N3CCCN(CCF)CC3)ccc2n1CCF [Compound B78] | 20.3 | 39.4 | 100 to 500 |  |  |
| O=C(Nc1cc(C(F)(F)F)cc(C(F)(F)F)c1)Nc1ccc2[nH]c(-c3c4cccccc-4[nH]c3=O)nc2c1 [Compound B134] | 36.8 | 57.3 | 670 |  |  |
| O=c1[nH]c2cccccc-2c1-c1nc2cc(N3CCCN(c4ccncc4)CC3)ccc2[nH]1 [Compound B93] | 44.2 | 89.4 | 129 |  |  |
| Cc1ccc(N2CCCN(c3ccc4[nH]c(-c5c6cccccc-6[nH]c5=O)nc4c3)CC2)nn1 [Compound B100] | 9.1 | 20.2 | 1000 to 5000 |  |  |
| O=c1[nH]c2cccccc-2c1-c1nc2cc(N3CCCN(CCCF)CC3)ccc2[nH]1 [Compound B82] | 30.3 | 81.6 | 18.6 | 91.1 | 31 |
